Assay results as given in patent US20210395327A1, “Growth Hormone-Releasing Hormone Antagonists and Uses Thereof” (United States Government As Represented By The Department …, priority 2019, published 2021).
Non-standard residues stand in square brackets, D forms with d. Residues, ends and D or L forms follow the SMILES beside them. *: point of attachment. Phenylacetyl(2,3,4,5,6-F5) = O=C(Cc1c(F)c(F)c(F)c(F)c1F)*; Phe(F5) = N[C@@H](Cc1c(F)c(F)c(F)c(F)c1F)C(=O)O; Phe(4-Cl) = N[C@@H](Cc1ccc(Cl)cc1)C(=O)O; hArg = N=C(N)NCCCC[C@H](N)C(=O)O; 12Ado = NCCCCCCCCCCCC(=O)O; Nle = CCCC[C@H](N)C(=O)O; Orn = NCCC[C@H](N)C(=O)O; Abu = CC[C@H](N)C(=O)O; PhAc = O=C(Cc1ccccc1)*

Tests used:
MX-1 breast cancer cells = assay: In vitro cell viability, MX-1; format: cell-based, human; details: for In vitro relative inhibitory potency in comparison to MIA-602, MX-1: Table 3B, 5 μM for 72 H, MIA-602 = 1
Summary of the method: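 Cells grown to ~60% confluence, serum-starved 24 h in 0.5% FBS medium, then exposed to compounds at 5 μM (some at 2 μM) or 0.1% DMSO vehicle for 72 h, in quintuplicate, medium changed every 48 h. Viability read by MTS-type CellTiter 96 AQueous assay; values are inhibitory potency relative to MIA602.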

[1] = test system: OVCAR-3 ovarian cancer cells; assay: In vitro cell viability, OVCAR-3; format: cell-based, human; details: Table 3B; * at 2 μM for 72 H; MIA-602 = 1
Description: The inhibitory effects of the various synthesized GHRH antagonists were tested in cell proliferation assays in various human cancer cell lines including stomach cancer (KATOIII, N87), colon cancer (HT-29), urothelial cancer (J82, RT4), pancreatic cancer (PANC-1, CFPAC-1), prostatic cancer (PC3), breast cancer (MX-1, HCC1806), ovarian cancer (SK-OV-3, OVCAR-3) and lung cancer (HCC827, H460).
Cell culture. Human cancer cell lines including pancreatic (PANC-1 and CFPAC-1), lung (HCC827 and H460), stomach (NCI-N87 and KATOIII), urothelial (J82, RT4), prostatic (PC3), breast (MX-1 and HCC 1806), colorectal (HT-29), and ovarian (SK-OV-3 and OVCAR-3) were obtained from the American Type Culture Collection (ATCC) and cultured at 37° C. in a humidified 95% air/5% CO2 atmosphere in the medium recommended by ATCC.
In vitro cell viability. Cell viability was analyzed as follows: cancer cells including pancreatic (PANC-1 and CFPAC-1), lung (HCC827 and H460), stomach (NCI-N87 and KATOIII), urothelial (J82, RT4), prostatic (PC3) and breast (MX-1 and HCC 1806), colorectal (HT-29) and ovarian (SK-OV-3 and OVCAR-3) were grown on 96 well plates to ˜60% confluence, the cells were starved for 24 h in culture medium containing 0.5% FBS. Cells were then treated with GHRH antagonists MIA602 AVR compounds at concentrations of 1, 2.5 or 5 μM, or vehicle (0.1% DMSO) in quintuplicates for 72 hours. The medium was replaced every 48 hours. Cell viability was measured using CellTiter 96 aqueous one solution kit (Promega). Inhibitory effects of tested AVR compounds in comparison to that of MIA602 are presented as inhibitory potency.
Inhibitory effects of selected AVR compounds in comparison to that of MIA602 are presented as inhibitory potency (e.g., percentage of inhibition). […] The cell lines tested including lung cancer HCC827 (FIG. 2A), pancreatic cancer CFPAC-1 (FIG. 2B), stomach cancer N87 (FIG. 2C), colon cancer HT-29 (FIG. 2D), breast cancers MX-1 and HCC1806 (FIGS. 2 E, F). […]

[2] = test system: prostate cancer PC3 xenograft; assay: Xenograft tumor growth in nude mice, PC3; format: in vivo; details: Table 4N, Prostate Ca PC3, 8 weeks, 5 μg/day s.c.; for % Inhibition: vs control
Description: (§1) The peptides' activity was compared with GHRH antagonist MIA-602. All statistical analyzses were performed from comparing GHRA antagonists to non-treated tumor (control).
(§2) Peptides and chemicals. GHRH antagonists MIA-602 and AVR-GHRH antagonists (see Table 2 above) were synthesized by solid phase methods and purified by HPLC. The peptides were dissolved in DMSO and further diluted in 10% 1,2-propanediol. The final concentration of peptides was 50 µg/ml in 10% 1,2-propanediol containing 0.1% of DMSO.
(§3) Cell culture. Human cancer cell lines including pancreatic (PANC-1 and CFPAC-1), lung (HCC827 and H460), stomach (NCI-N87), prostate (PC3), brest (MX-1 and HCC-1806), colorectal (HT-29), and ovarian (SK-OV-3 and OVCAR-3) were obtained from the American Type Culture Collection (ATCC) and cultured at 37° C. in a humidified 95% air/5% CO2 atmosphere in the medium recommended by ATCC.
(§4) Xenograft models of human cancers in nude mice. Female athymic (NCr nu/nu) nude mice, 5- to 6-weeks-old, obtained from the Envigo labs (Tampa, Fla.), were housed in laminar airflow cabinets under pathogen-free conditions with a 12-h light/12-h dark schedule, and were fed autoclaved standard chow and water. To generate mice with xenografted tumors, tumor xenografts were initiated by subcutaneous (s.c.) injection of 107 human cancer cells into female nude mice. After about 4 weeks the resulting tumors were dissected and collected after removing necrosis tissues. The tumors were then cut into particles with size of 3 mm3 and transplanted s.c. by trocar needle into experimental animals. When tumors grew to the size of 50-60 mm3 (by volume), mice were randomized into groups and treated daily for 4-8 weeks by subcutaneous administration of 5 μg of GHRH antagonists MIA-602 or AVR-compounds (2-10 μg as indicated), or vehicle solutions (0.1% DMSO in 10% 1,2-propanediol) respectively. Tumor sizes were measured weekly.
(§5) Statistical analysis. One-way ANOVA followed by Bonferroni comparison were performed. Data are expressed as Mean±SEM. To determine statistical significance between animal groups, two-tailed Student's t-test was conducted. Differences were considered significant when p<0.05.
(§6) Results. […] FIG. 1A-N represents in vivo inhibition of tumor growth during the treatment with GHRH antagonist MIA-602 and selected AVR antagonists in nude mice xenografted with various human tumors including pancreatic cancer PANC-1 (FIG. 1A) and CFPAC-1 (FIG. 1I); lung cancer HCC827 (FIGS. 1B, C) and H460 (FIG. 1H); stomach cancer N87 (FIGS. 1D-F); colon cancer HT-29 (FIG. 1G); breast cancer MX-1 and HCC-1806 (FIGS. 1J, K); ovarian cancer SK-OV-3 and OVACAR-3 (FIGS. 1 L, M) and prostate cancer PC3 (FIG. 1N). See also Table 5.

[3] = test system: pancreatic cancer CFPAC-1 xenograft; assay: Xenograft tumor growth in nude mice, CFPAC-1; format: in vivo; details: Table 4I, Pancreatic Ca CFPAC-1, 7 weeks; for % Inhibition: vs control
Description: as §1, §2, §3, §4, §5, §6

[4] = test system: ovarian cancer SK-OV-3 xenograft; assay: Xenograft tumor growth in nude mice, SK-OV-3; format: in vivo; details: Table 4L, Ovarian Ca SK-OV-3, 7 weeks; for % Inhibition: vs control
Description: as §1, §2, §3, §4, §5, §6

[5] = test system: breast cancer MX-1 xenograft; assay: Xenograft tumor growth in nude mice, MX-1; format: in vivo; details: Table 4J, Breast Ca MX-1, 4 weeks, 5 μg/day s.c.; for % Inhibition: vs control
Description: as §1, §2, §3, §4, §5, §6

[6] = test system: lung cancer H460 xenograft; assay: Xenograft tumor growth in nude mice, H460; format: in vivo; details: Table 4H, Lung Ca H460, 4 weeks, 5 μg/day s.c.; for % Inhibition: vs control
Description: as §1, §2, §3, §4, §5, §6

CCCC[C@H](NC(=O)[C@@H](NC(=O)[C@H](CC(=O)O)NC(=O)[C@H](CCC(N)=O)NC(=O)[C@H](CC(C)C)NC(=O)[C@H](CC(C)C)NC(=O)[C@H](CCCCN)NC(=O)[C@H](CCCNC(=N)N)NC(=O)[C@H](C)NC(=O)[C@H](CO)NC(=O)[C@H](CC(C)C)NC(=O)[C@H](CCC(N)=O)NC(=O)[C@H](CC)NC(=O)[C@H](CC(C)C)NC(=O)[C@@H](NC(=O)[C@H](CCCCN)NC(=O)[C@H](CCCNC(=N)N)NC(=O)[C@H](Cc1c(F)c(F)c(F)c(F)c1F)NC(=O)[C@H](CCCCNC(=N)N)NC(=O)[C@H](C)NC(=O)[C@@H](NC(=O)[C@H](Cc1ccc(Cl)cc1)NC(=O)[C@@H](NC(=O)[C@H](C)NC(=O)[C@H](CC(=O)O)NC(=O)[C@@H](CCCNC(=N)N)NC(=O)[C@H](Cc1ccc(O)cc1)NC(=O)CCCCCCCCCCCNC(=O)Cc1c(F)c(F)c(F)c(F)c1F)[C@@H](C)CC)[C@@H](C)O)C(C)C)[C@@H](C)CC)C(=O)N[C@H](CCCNC(=N)N)C(=O)N[C@@H](CCCCNC(=N)N)C(=O)NCCCCCCCCCCCC(N)=O [AVR-353, 5FPhAC-Ada-Tyr-DArg-Asp-Ala-Ile-Cpa-Thr-Ala-Har-5FPhe-Arg-Lys-Val-Leu-Abu-Gln-Leu-Ser-Ala-Arg-Lys-Leu-Leu-Gln-Asp-Ile-Nle-DArg-Har-Ada-NH2] ({Phenylacetyl(2,3,4,5,6-F5)-12Ado}-Y[dR]DAI[Phe(4-Cl)]TA[hArg][Phe(F5)]RKVL[Abu]QLSARKLLQDI[Nle][dR][hArg][12Ado]-NH2)
In vitro relative inhibitory potency in comparison to MIA-602, MX-1 (MX-1 breast cancer cells): 2.001
In vitro relative inhibitory potency in comparison to MIA-602, OVCAR-3 [1]: 1.55*
Tumor Size (mm3) [2]: 496.7 mm3
% Inhibition [2]: 39.9%
Tumor Growth % ([3]; 2.5 μg/day s.c.): 1294.1%
% Inhibition ([3]; 2.5 μg/day s.c.): 34.3%
Tumor Growth % ([3]; 5 μg/day s.c.): 1077.6%
% Inhibition ([3]; 5 μg/day s.c.): 46.2%
Tumor Size (mm3) ([4]; 2.5 μg/day s.c.): 1056.0 mm3
% Inhibition ([4]; 2.5 μg/day s.c.): 19.1%
Tumor Size (mm3) ([4]; 5 μg/day s.c.): 910.7 mm3
% Inhibition ([4]; 5 μg/day s.c.): 30.9%
Tumor Growth % [5]: 774.2%
% Inhibition [5]: 30.5%
Tumor Growth % [6]: 1335.0%
% Inhibition [6]: 60.5%

CCCC[C@H](NC(=O)[C@@H](NC(=O)[C@H](CC(=O)O)NC(=O)[C@H](CCC(N)=O)NC(=O)[C@H](CC(C)C)NC(=O)[C@H](CC(C)C)NC(=O)[C@H](CCCN)NC(=O)[C@H](Cc1c[nH]cn1)NC(=O)[C@H](C)NC(=O)[C@H](CO)NC(=O)[C@H](CC(C)C)NC(=O)[C@H](CCC(N)=O)NC(=O)[C@H](CC)NC(=O)[C@H](CC(C)C)NC(=O)[C@@H](NC(=O)[C@H](CCCN)NC(=O)[C@H](Cc1c[nH]cn1)NC(=O)[C@H](Cc1ccc(OC)cc1)NC(=O)[C@H](CCCCNC(=N)N)NC(=O)[C@H](C)NC(=O)[C@@H](NC(=O)[C@H](Cc1c(F)c(F)c(F)c(F)c1F)NC(=O)[C@@H](NC(=O)[C@H](C)NC(=O)[C@H](CC(=O)O)NC(=O)[C@@H](CCCNC(=N)N)NC(=O)[C@H](Cc1ccc(O)cc1)NC(=O)CCCCCCCCCCCNC(=O)Cc1ccccc1)[C@@H](C)CC)[C@@H](C)O)C(C)C)[C@@H](C)CC)C(=O)N[C@H](CCCNC(=N)N)C(=O)N[C@@H](CCCCNC(=N)N)C(N)=O [MIA-602, PhAC-Ada, Tyr D-Arg, Asp, Ala, Ile, 5FPhe, Thr, Ala, Har, Tyr(Me), His, Orn, Val, Leu, Abu, Gin, Leu, Ser, Ala, His, Om, Leu, Leu, Gin, Asp, Ile; Nle, D-Arg, Har NH2, reference compound] ({PhAc-12Ado}-Y[dR]DAI[Phe(F5)]TA[hArg]Y(Me)H[Orn]VL[Abu]QLSAH[Orn]LLQDI[Nle][dR][hArg]-NH2)
In vitro relative inhibitory potency in comparison to MIA-602, MX-1 (MX-1 breast cancer cells): 1
relative inhibitory potency in comparison to MIA-602, Breast MX-1 (MX-1 breast cancer cells; antagonist 5 μM for 72 h, cell proliferation assay, MIA602 = 1): 1
In vitro relative inhibitory potency in comparison to MIA-602, OVCAR-3 [1]: 1
Tumor Size (mm3) [2]: 450.9 mm3
% Inhibition [2]: 45.5%
Tumor Growth % ([3]; 5 μg/day s.c.): 1587.5%
% Inhibition ([3]; 5 μg/day s.c.): 19.5%
Tumor Size (mm3) ([4]; 5 μg/day s.c.): 810.1 mm3
% Inhibition ([4]; 5 μg/day s.c.): 38.0%
Tumor Growth % [5]: 677.3%
% Inhibition [5]: 39.2%
Tumor Growth % [6]: 1602.7%
% Inhibition [6]: 52.6%
